From ChEMBL document CHEMBL1201862, “PubChem BioAssay data set” (2004)
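Cells were grown in 96-well plates and exposed to each compound for 48 hours at five concentrations; endpoints were interpolated linearly between bracketing concentrations, or set to the highest concentration if not reached. At the GI50, growth is halved.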 Activity calls are given as the source filed them. Rule as the data show it: active = GI50 up to about 1.1 µM and inactive = higher.

How the values were obtained:
Experiment in all cases: NCI-60 cell line screen, 48 h
[1] = system: 786-0
[2] = system: A498
[3] = system: A549
[4] = system: ACHN
[5] = system: CAKI-1
[6] = system: CCRF-CEM
[7] = system: DLD-1
[8] = system: DMS-114
[9] = system: DMS-273
[10] = system: EKVX
[11] = system: HCC 2998
[12] = system: HCT-116
[13] = system: HCT-15
[14] = system: HL-60
[15] = system: HOP-18
[16] = system: HOP-62
[17] = system: HOP-92
[18] = system: HT-29
[19] = system: IGROV-1
[20] = system: K562
[21] = system: KM-20L2
[22] = system: KM12
[23] = system: LOX IMVI
[24] = system: LXFL 529
[25] = system: M14
[26] = system: M19-MEL
[27] = system: MOLT-4
[28] = system: Malme-3M
[29] = system: NCI-H23
[30] = system: NCI-H460
[31] = system: OVCAR-3
[32] = system: OVCAR-4
[33] = system: OVCAR-5
[34] = system: OVCAR-8
[35] = system: RPMI-8226
[36] = system: RXF 393
[37] = system: RXF 631
[38] = system: SF-268
[39] = system: SF-295
[40] = system: SF-539
[41] = system: SK-MEL-28
[42] = system: SK-MEL-5
[43] = system: SK-OV-3
[44] = system: SNB-19
[45] = system: SNB-75
[46] = system: SNB-78
[47] = system: SR
[48] = system: SW-620
[49] = system: TK-10
[50] = system: U-251
[51] = system: UACC-257
[52] = system: UACC-62
[53] = system: UO-31
[54] = system: XF498
[55] = system: COLO 205
[56] = system: NCI-H226
[57] = system: NCI-H522
[58] = system: SK-MEL-2
[59] = system: SN12C

## Cc1cc(O)c2c(c1)C(O)(c1ccc3c(c1O)C(=O)c1c(O)cc(C)cc1C3(O)C1OC(CO)C(O)C(O)C1O)c1cccc(O)c1C2=O (configuration not stated)
[1]
  GI50: 15.3 µM (inactive)
[2]
  GI50: 13.6 µM (inactive)
[3]
  GI50: 18.3 µM (inactive)
[4]
  GI50: 13 µM (inactive)
[5]
  GI50: 17.7 µM (inactive)
[6]
  GI50: 8.34 µM (inactive)
[7]
  GI50: 11.5 µM (inactive)
[8]
  GI50: 9.91 µM (inactive)
[9]
  GI50: 15.1 µM (inactive)
[10]
  GI50: 14.3 µM (inactive)
[11]
  GI50: 16 µM (inactive)
[12]
  GI50: 11.9 µM (inactive)
[13]
  GI50: 12.8 µM
[14]
  GI50: 3.09 µM (inactive)
[15]
  GI50: 5.06 µM (inactive)
[16]
  GI50: 15.3 µM (inactive)
[17]
  GI50: 6.19 µM (inactive)
[18]
  GI50: 20.5 µM (inactive)
[19]
  GI50: 14.7 µM (inactive)
[20]
  GI50: 5.15 µM (inactive)
[21]
  GI50: 18.6 µM (inactive)
[22]
  GI50: 11.5 µM (inactive)
[23]
  GI50: 11.4 µM (inactive)
[24]
  GI50: 11.9 µM (inactive)
[25]
  GI50: 14.4 µM (inactive)
[26]
  GI50: 12.2 µM (inactive)
[27]
  GI50: 10.7 µM (inactive)
[28]
  GI50: 11.7 µM (inactive)
[29]
  GI50: 15.2 µM (inactive)
[30]
  GI50: 14 µM (inactive)
[31]
  GI50: 10.5 µM (inactive)
[32]
  GI50: 12.9 µM (inactive)
[33]
  GI50: 18.1 µM (inactive)
[34]
  GI50: 13.4 µM (inactive)
[35]
  GI50: 16 µM (inactive)
[36]
  GI50: 12.1 µM (inactive)
[37]
  GI50: 16 µM (inactive)
[38]
  GI50: 20.1 µM (inactive)
[39]
  GI50: 11.6 µM (inactive)
[40]
  GI50: 13.6 µM (inactive)
[41]
  GI50: 15 µM (inactive)
[42]
  GI50: 18.9 µM (inactive)
[43]
  GI50: 17.6 µM (inactive)
[44]
  GI50: 16.4 µM (inactive)
[45]
  GI50: 14.1 µM (inactive)
[46]
  GI50: 16.1 µM (inactive)
[47]
  GI50: 8.15 µM (inactive)
[48]
  GI50: 17.3 µM (inactive)
[49]
  GI50: 14.1 µM (inactive)
[50]
  GI50: 11.6 µM (inactive)
[51]
  GI50: 13.7 µM (inactive)
[52]
  GI50: 12.1 µM (inactive)
[53]
  GI50: 17.7 µM (inactive)
[54]
  GI50: 5.08 µM (inactive)

## N#CC1(C#N)C(c2ccccc2)C=CC12OCCCO2 (configuration not stated)
[1]
  GI50: 31.9 µM (inactive)
[2]
  GI50: 48.6 µM (inactive)
[3]
  GI50: 88.9 µM (inactive)
[4]
  GI50: 42.7 µM (inactive)
[5]
  GI50: 24.5 µM (inactive)
[6]
  GI50: 26.9 µM (inactive)
[55]
  GI50: 26.2 µM (inactive)
[7]
  GI50: 26 µM (inactive)
[8]
  GI50: 24.3 µM (inactive)
[9]
  GI50: 32.3 µM (inactive)
[10]
  GI50: 59.3 µM (inactive)
[11]
  GI50: 84.9 µM (inactive)
[12]
  GI50: 24.9 µM (inactive)
[14]
  GI50: 23.4 µM (inactive)
[15]
  GI50: > 100 µM (inactive)
[16]
  GI50: > 100 µM (inactive)
[17]
  GI50: 30.5 µM (inactive)
[18]
  GI50: 47.5 µM (inactive)
[19]
  GI50: 60.5 µM (inactive)
[20]
  GI50: 30.6 µM (inactive)
[21]
  GI50: 68.5 µM (inactive)
[22]
  GI50: 38.1 µM (inactive)
[23]
  GI50: 40.4 µM (inactive)
[24]
  GI50: 28.5 µM (inactive)
[25]
  GI50: 29.7 µM (inactive)
[26]
  GI50: 40.3 µM (inactive)
[27]
  GI50: 26.7 µM (inactive)
[28]
  GI50: 42.2 µM (inactive)
[56]
  GI50: 78.7 µM (inactive)
[29]
  GI50: 31.2 µM (inactive)
[30]
  GI50: 42 µM (inactive)
[57]
  GI50: 16.3 µM (inactive)
[31]
  GI50: 33 µM (inactive)
[32]
  GI50: 59.4 µM (inactive)
[33]
  GI50: 51.5 µM (inactive)
[34]
  GI50: 17.7 µM (inactive)
[35]
  GI50: 27.7 µM (inactive)
[36]
  GI50: 17 µM (inactive)
[37]
  GI50: 81.3 µM (inactive)
[38]
  GI50: 28.4 µM (inactive)
[39]
  GI50: 76 µM (inactive)
[40]
  GI50: 21.6 µM (inactive)
[41]
  GI50: 27 µM (inactive)
[58]
  GI50: 72.4 µM (inactive)
[42]
  GI50: 53.8 µM (inactive)
[43]
  GI50: > 100 µM (inactive)
[59]
  GI50: 32.6 µM (inactive)
[44]
  GI50: > 100 µM (inactive)
[45]
  GI50: 42.9 µM (inactive)
[46]
  GI50: 31.6 µM (inactive)
[47]
  GI50: 27 µM (inactive)
[48]
  GI50: 31.1 µM (inactive)
[49]
  GI50: 48.9 µM (inactive)
[50]
  GI50: 45.2 µM (inactive)
[51]
  GI50: 27.4 µM (inactive)
[52]
  GI50: 33.3 µM (inactive)
[53]
  GI50: 97.3 µM (inactive)
[54]
  GI50: 49.4 µM (inactive)

## Cc1cccc(C)c1NC(=O)C(=O)C1C(=O)NC(=O)NC1=O
[1]
  GI50: > 100 µM (inactive)
[2]
  GI50: > 100 µM (inactive)
[3]
  GI50: > 100 µM (inactive)
[4]
  GI50: > 100 µM (inactive)
[5]
  GI50: > 100 µM (inactive)
[6]
  GI50: > 100 µM (inactive)
[55]
  GI50: > 100 µM (inactive)
[7]
  GI50: > 100 µM (inactive)
[8]
  GI50: > 100 µM (inactive)
[9]
  GI50: > 100 µM (inactive)
[10]
  GI50: > 100 µM (inactive)
[11]
  GI50: > 100 µM (inactive)
[12]
  GI50: > 100 µM (inactive)
[13]
  GI50: > 100 µM
[14]
  GI50: > 100 µM (inactive)
[15]
  GI50: > 100 µM (inactive)
[16]
  GI50: > 100 µM (inactive)
[17]
  GI50: > 100 µM (inactive)
[18]
  GI50: > 100 µM (inactive)
[19]
  GI50: > 100 µM (inactive)
[20]
  GI50: > 100 µM (inactive)
[21]
  GI50: > 100 µM (inactive)
[22]
  GI50: > 100 µM (inactive)
[23]
  GI50: > 100 µM (inactive)
[24]
  GI50: > 100 µM (inactive)
[25]
  GI50: > 100 µM (inactive)
[26]
  GI50: > 100 µM (inactive)
[27]
  GI50: > 100 µM (inactive)
[28]
  GI50: > 100 µM (inactive)
[56]
  GI50: > 100 µM (inactive)
[29]
  GI50: > 100 µM (inactive)
[30]
  GI50: > 100 µM (inactive)
[57]
  GI50: > 100 µM (inactive)
[31]
  GI50: > 100 µM (inactive)
[32]
  GI50: > 100 µM (inactive)
[33]
  GI50: > 100 µM (inactive)
[34]
  GI50: > 100 µM (inactive)
[35]
  GI50: > 100 µM (inactive)
[36]
  GI50: > 100 µM (inactive)
[37]
  GI50: > 100 µM (inactive)
[38]
  GI50: > 100 µM (inactive)
[39]
  GI50: > 100 µM (inactive)
[40]
  GI50: > 100 µM (inactive)
[41]
  GI50: > 100 µM (inactive)
[42]
  GI50: > 100 µM (inactive)
[43]
  GI50: > 100 µM (inactive)
[59]
  GI50: > 100 µM (inactive)
[44]
  GI50: > 100 µM (inactive)
[46]
  GI50: > 100 µM (inactive)
[47]
  GI50: > 100 µM (inactive)
[48]
  GI50: > 100 µM (inactive)
[49]
  GI50: > 100 µM (inactive)
[50]
  GI50: > 100 µM (inactive)
[51]
  GI50: > 100 µM (inactive)
[52]
  GI50: > 100 µM (inactive)
[53]
  GI50: > 100 µM (inactive)
[54]
  GI50: > 100 µM (inactive)

## COc1cc(/C=C\c2ccncc2)cc(OC)c1OC
[1]
  GI50: > 100 µM (inactive)
[2]
  GI50: > 100 µM (inactive)
[3]
  GI50: 69 µM (inactive)
[4]
  GI50: > 100 µM (inactive)
[5]
  GI50: 80 µM (inactive)
[6]
  GI50: > 100 µM (inactive)
[55]
  GI50: 42.1 µM (inactive)
[7]
  GI50: > 100 µM (inactive)
[8]
  GI50: 57.3 µM (inactive)
[9]
  GI50: 63.8 µM (inactive)
[10]
  GI50: 70.8 µM (inactive)
[12]
  GI50: 99.1 µM (inactive)
[13]
  GI50: 55.7 µM
[14]
  GI50: 24.1 µM (inactive)
[15]
  GI50: > 100 µM (inactive)
[16]
  GI50: > 100 µM (inactive)
[17]
  GI50: 36.5 µM (inactive)
[18]
  GI50: 40.6 µM (inactive)
[19]
  GI50: > 100 µM (inactive)
[20]
  GI50: 27.3 µM (inactive)
[21]
  GI50: 65.3 µM (inactive)
[22]
  GI50: 48.1 µM (inactive)
[23]
  GI50: 44.2 µM (inactive)
[24]
  GI50: 67.6 µM (inactive)
[25]
  GI50: 42.9 µM (inactive)
[27]
  GI50: 59.4 µM (inactive)
[28]
  GI50: > 100 µM (inactive)
[56]
  GI50: > 100 µM (inactive)
[30]
  GI50: 46.6 µM (inactive)
[57]
  GI50: 43.3 µM (inactive)
[31]
  GI50: > 100 µM (inactive)
[32]
  GI50: > 100 µM (inactive)
[33]
  GI50: 63.5 µM (inactive)
[34]
  GI50: > 100 µM (inactive)
[35]
  GI50: 38.3 µM (inactive)
[36]
  GI50: > 100 µM (inactive)
[37]
  GI50: 64.7 µM (inactive)
[38]
  GI50: > 100 µM (inactive)
[39]
  GI50: 54.3 µM (inactive)
[40]
  GI50: > 100 µM (inactive)
[41]
  GI50: > 100 µM (inactive)
[42]
  GI50: 57.5 µM (inactive)
[59]
  GI50: > 100 µM (inactive)
[44]
  GI50: > 100 µM (inactive)
[45]
  GI50: 37.8 µM (inactive)
[46]
  GI50: > 100 µM (inactive)
[48]
  GI50: 43.2 µM (inactive)
[49]
  GI50: > 100 µM (inactive)
[50]
  GI50: > 100 µM (inactive)
[51]
  GI50: > 100 µM (inactive)
[52]
  GI50: 59.2 µM (inactive)
[53]
  GI50: 72.3 µM (inactive)
[54]
  GI50: 29.1 µM (inactive)
